Drawing on ChEMBL document CHEMBL1125674, “Crystal, solution, and molecular modeling structural properties and muscarinic antagonist activity of azaprophen” (J Med Chem, 1991), this text covers Ki for two compounds.

SMILES strings stand for the structures.

A short description of assay [1]: (§1) Inhibition of [3H]pirenzepine binding towards muscarinic acetylcholine receptor in rat brain.
A short description of assay [2]: Inhibition of [3H]QNB binding towards muscarinic acetylcholine receptor in rat heart.
For assay [3], the target named is T1, Muscarinic acetylcholine receptor M1 (Homo sapiens, UniProt P11229).
T1 sequence (P11229 whole entry): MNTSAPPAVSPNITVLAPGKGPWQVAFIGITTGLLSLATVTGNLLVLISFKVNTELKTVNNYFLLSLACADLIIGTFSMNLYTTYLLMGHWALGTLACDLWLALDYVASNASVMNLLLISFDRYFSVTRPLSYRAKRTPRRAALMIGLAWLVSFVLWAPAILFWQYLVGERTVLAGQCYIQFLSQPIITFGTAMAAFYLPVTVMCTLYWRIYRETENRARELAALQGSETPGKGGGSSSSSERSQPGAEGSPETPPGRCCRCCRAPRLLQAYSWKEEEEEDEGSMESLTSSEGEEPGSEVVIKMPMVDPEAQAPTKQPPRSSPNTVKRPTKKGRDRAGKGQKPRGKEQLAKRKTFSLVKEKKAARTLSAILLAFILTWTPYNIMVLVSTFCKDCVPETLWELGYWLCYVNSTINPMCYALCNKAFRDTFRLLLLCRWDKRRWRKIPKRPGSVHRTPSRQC
Kind of assay: Inhibition of [3H]QNB binding to CHO cells bearing transfected muscarinic acetylcholine receptor M1. The assay is classed as cell-based, Cricetulus griseus.

Assay [4] can be described thus: Inhibition of [3H]QNB binding towards muscarinic acetylcholine receptor in rat brain. The assay is classed as tissue-based.
Assay [5] addresses Muscarinic acetylcholine receptor M3 (Homo sapiens, UniProt P20309). Briefly: Inhibition of [3H]QNB binding to CHO cells bearing transfected muscarinic acetylcholine receptor M3. The assay is classed as cell-based, Cricetulus griseus.
Assay [6] deals with T2, Muscarinic acetylcholine receptors; M1 & M2 (Homo sapiens, UniProt P11229+P08172).
T2 sequence (P11229 whole entry): T1 sequence (P11229 whole entry)
T2 sequence (P08172 whole entry): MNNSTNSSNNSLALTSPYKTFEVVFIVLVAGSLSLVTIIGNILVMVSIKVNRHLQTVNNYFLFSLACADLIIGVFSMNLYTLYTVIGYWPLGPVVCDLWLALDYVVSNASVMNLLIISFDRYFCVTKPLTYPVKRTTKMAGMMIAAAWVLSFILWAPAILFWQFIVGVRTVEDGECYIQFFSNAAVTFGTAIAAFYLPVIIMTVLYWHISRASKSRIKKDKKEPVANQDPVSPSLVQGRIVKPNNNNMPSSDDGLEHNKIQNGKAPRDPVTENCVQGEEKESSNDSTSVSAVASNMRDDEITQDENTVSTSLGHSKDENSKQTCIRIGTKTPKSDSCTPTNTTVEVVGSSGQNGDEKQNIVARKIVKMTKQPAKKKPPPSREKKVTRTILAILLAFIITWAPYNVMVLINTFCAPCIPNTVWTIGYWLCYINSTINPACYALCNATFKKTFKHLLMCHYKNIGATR
Briefly: Inhibition of [3H]QNB binding towards muscarinic acetylcholine receptor in guinea pig ileum. Conditions: target entry is the homologue from another species. The assay is classed as tissue-based, Cavia porcellus.

Assay [7] in a line: as §1. The assay is classed as tissue-based.

Chain of Muscarinic acetylcholine receptor M3 (P20309 whole entry, looked up): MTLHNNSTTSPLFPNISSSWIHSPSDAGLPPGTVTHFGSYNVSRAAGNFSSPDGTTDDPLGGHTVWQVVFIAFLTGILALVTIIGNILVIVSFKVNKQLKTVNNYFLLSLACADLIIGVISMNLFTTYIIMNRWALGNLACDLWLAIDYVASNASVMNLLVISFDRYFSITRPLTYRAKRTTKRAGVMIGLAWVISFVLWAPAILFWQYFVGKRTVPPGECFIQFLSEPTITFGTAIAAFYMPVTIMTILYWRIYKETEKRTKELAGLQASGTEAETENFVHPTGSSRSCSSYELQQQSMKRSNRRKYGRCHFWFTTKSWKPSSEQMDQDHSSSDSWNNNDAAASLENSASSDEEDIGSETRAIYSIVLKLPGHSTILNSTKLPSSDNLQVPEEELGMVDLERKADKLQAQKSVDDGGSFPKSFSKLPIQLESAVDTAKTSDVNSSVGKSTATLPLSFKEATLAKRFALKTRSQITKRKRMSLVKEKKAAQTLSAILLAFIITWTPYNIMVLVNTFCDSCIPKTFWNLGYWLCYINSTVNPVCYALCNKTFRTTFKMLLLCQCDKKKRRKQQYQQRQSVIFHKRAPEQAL

As to `CN1[C@@H]2CC[C@H]1C[C@@H](OC(=O)C(CO)c1ccccc1)C2` (stereo partly drawn) [ATROPINE], the Ki in assay [1] and in assay [2] was 0.545 nM in each case.

Turning to `CN1CC2CC(OC(=O)C(C)(c3ccccc3)c3ccccc3)CC1C2` (stereo not drawn) [AZAPROPHEN], the Ki in assay [3] came out at 0.088 nM; in assay [4] it was 0.118 nM; in assay [5], 0.472 nM; in assay [2] it was 0.13 nM; in assay [6], 0.279 nM; in assay [7] it was 0.196 nM.

The term Ki denotes the dissociation constant of the complex between target and ligand, obtained from inhibition or displacement. Read a low Ki as a stronger hold on the target.
